Assay results from patent US10065941B2, “Aminotriazine derivative and pharmaceutical composition comprising the same” (Shionogi & Co., Ltd., priority 2013, dated 2018).

How the values were obtained:
[1] = Pharmacokinetic test: bioavailability and total body clearance (Test Example 15); type: in vivo; details: SD rats, from AUCs of oral and intravenous groups
Experimental: • (1) Animals: SD rats were used • (2) Breeding conditions: SD rats were allowed to freely take solid food and sterilized tap water. • (3) Dose and grouping: orally or intravenously administered at a predetermined dose; grouping was as follows (Dose depends on the compound)
Oral administration: 1 mg/kg (n=2)
The total body clearance (CLtot) was calculated by dividing the dose by the AUC of the intravenous administration group.

human P2X3 receptor = human P2X3 receptor (Homo sapiens (Human), UniProt P56373); test: Evaluation of human P2X3 receptor inhibitory activity (Test Example 1); type: cell-based; details: C6BU-1 cell transfected with human P2X3 receptor gene, FLIPR 384
How it was run: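 C6BU-1 cells stably expressing human P2X3, loaded with 4 μM Fluo-3-AM 1 h at 37 °C, preincubated 5 min with test compound, then stimulated with 150 nM ATP solution (stock, pre-dispense) and monitored by FLIPR for 4 min. IC50 derived from maximum fluorescence ratio (post-ATP peak over baseline).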

[2] = Metabolism stability test, pooled human hepatic microsomes (Test Example 11); type: in vitro ADME; details: human liver microsomes, 30 minutes, compound concentration 0.5 μmol/L
Experimental: Using commercially available pooled human hepatic microsomes, a test compound is reacted for a constant time, a remaining rate is calculated by comparing a reacted sample and an unreacted sample, thereby, a degree of metabolism in liver is assessed.
A reaction was performed (oxidative reaction) at 37° C. for 0 minute or 30 minutes in the presence of 1 mmol/L NADPH in 0.2 mL of a buffer (50 mmol/L tris-HCl pH 7.4, 150 mmol/L potassium chloride, 10 mmol/L magnesium chloride) containing 0.5 mg protein/mL of human liver microsomes. After the reaction, 50 μL of the reaction solution was added to 100 μL of a methanol/acetonitrile=1/1 (v/v), mixed and centrifuged at 3000 rpm for 15 minutes. The test compound in the supernatant was quantified by LC/MS/MS, and a remaining amount of the test compound after the reaction was calculated, letting a compound amount at 0 minute reaction time to be 100%.
The remaining rate at the compound concentration 0.5 μmol/L are shown below.

Sequence of human P2X3 receptor (P56373 whole entry): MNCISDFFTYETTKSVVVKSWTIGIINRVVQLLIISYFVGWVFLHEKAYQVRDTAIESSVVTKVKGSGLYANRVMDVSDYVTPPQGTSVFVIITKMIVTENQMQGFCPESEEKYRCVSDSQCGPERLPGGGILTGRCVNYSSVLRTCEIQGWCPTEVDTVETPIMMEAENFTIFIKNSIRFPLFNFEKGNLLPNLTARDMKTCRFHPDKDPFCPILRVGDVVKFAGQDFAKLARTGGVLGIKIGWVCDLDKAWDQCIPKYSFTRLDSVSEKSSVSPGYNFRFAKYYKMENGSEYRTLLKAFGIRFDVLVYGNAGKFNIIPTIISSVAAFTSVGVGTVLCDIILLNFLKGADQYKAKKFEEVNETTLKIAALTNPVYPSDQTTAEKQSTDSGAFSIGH

Row | Compound | BA [1] [%] | IC50 (human P2X3 receptor) [nM] | Metabolism Stability (remaining rate) [2] [%]
1 | C[C@@H](Cn1c(=O)[nH]/c(=N\c2ccc(Oc3cccc(Cl)n3)cc2)n(Cc2ccc(Cl)cc2)c1=O)C(=O)O [Compound I-014] | 106.2 | 7 | –
2 | O=C(O)C1(Cn2c(=O)[nH]/c(=N\c3ccc(Oc4cccc(F)n4)cc3)n(Cc3ccc(Cl)cc3)c2=O)CC1 [Compound I-017] | 80.7 | 6 | –
3 | C[C@@H](Cn1c(=O)[nH]/c(=N\c2ccc(Oc3cccc(F)n3)cc2)n(Cc2ccc(F)cc2F)c1=O)C(=O)O [Compound I-029] | – | 14 | 100
4 | Cc1ccc(Cn2c(=O)n(C[C@H](C)C(=O)O)c(=O)[nH]/c2=N\c2ccc(Oc3ccc(F)cn3)cc2)cc1 [Compound I-040] | 70.3 | – | –
5 | Cc1ccc(Oc2ccc(/N=c3\[nH]c(=O)n(CC(C)(C)C(=O)O)c(=O)n3Cc3ccc(Cl)cc3)cc2)nc1 [Compound I-058] | 67.2 | 6 | –
6 | O=c1[nH]/c(=N\c2ccc(Oc3ncccc3F)cc2)n(Cc2ccc(Cl)cc2)c(=O)n1[C@H]1C[C@H](C(=O)O)C1 [Compound I-063] | – | 9 | 97
7 | C[C@@H](Cn1c(=O)[nH]/c(=N\c2ccc(Oc3cc(F)ccn3)cc2)n(Cc2ccc(Cl)cc2)c1=O)C(=O)O [Compound I-070] | – | 5 | 103
8 | O=c1[nH]/c(=N\c2ccc(Oc3ccccn3)cc2)n(Cc2ccc(Cl)cc2)c(=O)n1C[C@@H](O)CO [Compound R-250] | – | 9 | –
9 | O=c1[nH]/c(=N\c2ccc(Oc3ccccn3)cc2)n(Cc2ccc(Cl)cc2)c(=O)n1CCCO [Compound R-251, 1-(4-chlorobenzyl)-3-(3-hydroxypropyl)-6-[4-(2-pyridyloxy)phenylimino]-1,3,5-triazinane-2,4-dione] | – | 5 | –
10 | C=C(CO)Cn1c(=O)[nH]/c(=N\c2ccc(Oc3ccccn3)cc2)n(Cc2ccc(Cl)cc2)c1=O [Compound R-254, 1-(4-chlorobenzyl)-3-(2-hydroxymethyl-2-propenyl)-6-[4-(2-pyridyloxy)phenylimino]-1,3,5-triazinane-2,4-dione] | – | 3 | –
11 | O=c1[nH]/c(=N\c2ccc(Oc3ccccn3)cc2)n(Cc2ccc(Cl)cc2)c(=O)n1CC(O)(CO)CO [Compound R-255, 1-(4-chlorobenzyl)-3-(2-hydroxymethyl-2,3-dihydroxypropyl)-6-[4-(2-pyridyloxy)phenylimino]-1,3,5-triazinane-2,4-dione] | – | 5 | –
12 | NC(=O)NC(=O)Cn1c(=O)[nH]/c(=N\c2ccc(Oc3ccccn3)cc2)n(Cc2ccc(Cl)cc2)c1=O [Compound R-256] | – | 2 | –
13 | O=c1[nH]/c(=N\c2ccc(Oc3ccccn3)cc2)n(Cc2ccc(Cl)cc2)c(=O)n1CCO [Compound R-257, 1-(4-chlorobenzyl)-3-(2-hydroxyethyl)-6-[4-(2-pyridyloxy)phenylimino]-1,3,5-triazinane-2,4-dione] | – | 10 | –
14 | O=C(O)CCn1c(=O)[nH]/c(=N\c2ccc(Oc3cccc(F)n3)cc2)n(Cc2ccc(CF)cc2)c1=O [Compound R-275] | – | 23 | –
15 | O=C(O)CCn1c(=O)[nH]/c(=N\c2ccc(Oc3ncccc3F)cc2)n(Cc2ccc(CF)cc2)c1=O [Compound R-276] | – | 42 | –
16 | Cc1ccc(Cn2c(=O)n(CCCC(=O)O)c(=O)[nH]/c2=N\c2ccc(Oc3ncccc3F)cc2)cc1 [Compound R-277] | – | 14 | –
17 | Cc1ccc(Cn2c(=O)n(CCCC(=O)O)c(=O)[nH]/c2=N\c2ccc(Oc3ccc(F)cn3)cc2)cc1 [Compound R-278] | – | 15 | –
18 | Cc1ccc(Cn2c(=O)n(CCCC(=O)O)c(=O)[nH]/c2=N\c2ccc(Oc3cccc(F)n3)cc2)cc1 [Compound R-279] | – | 7 | –
19 | Cc1ccc(Cn2c(=O)n(CCC(=O)O)c(=O)[nH]/c2=N\c2ccc(Oc3ccccn3)c(F)c2)cc1 [Compound R-280] | – | 9 | –
20 | O=C(O)CCn1c(=O)[nH]/c(=N\c2ccc(Oc3ccccn3)c(F)c2)n(Cc2ccc(Cl)cc2)c1=O [Compound R-281] | – | 7 | –
21 | Cc1ccc(Cn2c(=O)n(CCC(=O)O)c(=O)[nH]/c2=N\c2ccc(Oc3ccccn3)c(C)c2)cc1 [Compound R-282] | – | 23 | –
22 | Cc1cc(/N=c2\[nH]c(=O)n(CCC(=O)O)c(=O)n2Cc2ccc(Cl)cc2)ccc1Oc1ccccn1 [Compound R-283] | – | 28 | –
23 | O=C(O)CCn1c(=O)[nH]/c(=N\c2ccc(Oc3ccc(Cl)cn3)cc2)n(Cc2ccc(Cl)cc2)c1=O [Compound R-284] | – | 5 | –
24 | Cc1ccc(Cn2c(=O)n(CCC(=O)O)c(=O)[nH]/c2=N\c2ccc(Oc3ccc(Cl)cn3)cc2)cc1 [Compound R-285] | – | 6 | –
25 | COC(=O)CCn1c(=O)[nH]/c(=N\c2ccc(Oc3cccc(F)n3)cc2)n(Cc2ccc(CF)cc2)c1=O [Compound R-286] | – | 6 | –
26 | COC(=O)CCn1c(=O)[nH]/c(=N\c2ccc(Oc3ccc(Cl)cn3)cc2)n(Cc2ccc(Cl)cc2)c1=O [Compound R-287] | – | 6 | –

Row | Compound | BA [1] [%] | IC50 (human P2X3 receptor) [nM] | Metabolism Stability (remaining rate) [2] [%]
27 | COC(=O)CCn1c(=O)[nH]/c(=N\c2ccc(Oc3ncccc3F)cc2)n(Cc2ccc(CF)cc2)c1=O [Compound R-288] | – | 12 | –
28 | COC(=O)CCn1c(=O)[nH]/c(=N\c2ccc(Oc3ccc(Cl)cn3)cc2)n(Cc2ccc(C)cc2)c1=O [Compound R-289] | – | 5 | –
29 | COC(=O)CCn1c(=O)[nH]/c(=N\c2ccc(Oc3ccccn3)c(C)c2)n(Cc2ccc(C)cc2)c1=O [Compound R-290] | – | 6 | –
30 | COC(=O)CCn1c(=O)[nH]/c(=N\c2ccc(Oc3ccccn3)c(C)c2)n(Cc2ccc(Cl)cc2)c1=O [Compound R-291] | – | 6 | –
31 | COC(=O)CCn1c(=O)[nH]/c(=N\c2ccc(Oc3ccccn3)c(F)c2)n(Cc2ccc(C)cc2)c1=O [Compound R-292] | – | 4 | –
32 | COC(=O)CCn1c(=O)[nH]/c(=N\c2ccc(Oc3ccccn3)c(F)c2)n(Cc2ccc(Cl)cc2)c1=O [Compound R-293] | – | 4 | –
33 | CCOC(=O)CCCn1c(=O)[nH]/c(=N\c2ccc(Oc3ncccc3F)cc2)n(Cc2ccc(C)cc2)c1=O [Compound R-294] | – | 6 | –
34 | CCOC(=O)CCCn1c(=O)[nH]/c(=N\c2ccc(Oc3ccc(F)cn3)cc2)n(Cc2ccc(C)cc2)c1=O [Compound R-295] | – | 6 | –
35 | CCOC(=O)CCCn1c(=O)[nH]/c(=N\c2ccc(Oc3cccc(F)n3)cc2)n(Cc2ccc(C)cc2)c1=O [Compound R-296] | – | 5 | –
36 | O=C(O)CCn1c(=O)[nH]/c(=N\c2ccc(Oc3ccccn3)c(Cl)c2)n(Cc2ccc(Cl)cc2)c1=O [Compound R-297] | – | 8 | –
37 | Cc1ccc(Cn2c(=O)n(CCC(=O)O)c(=O)[nH]/c2=N\c2ccc(Oc3ccccn3)c(Cl)c2)cc1 [Compound R-298] | – | 9 | –
38 | CC(=O)c1cccc(Oc2ccc(/N=c3\[nH]c(=O)n(CCC(=O)O)c(=O)n3Cc3ccc(Cl)cc3)cc2)n1 [Compound R-299] | – | 20 | –
39 | COC(=O)CCn1c(=O)[nH]/c(=N\c2ccc(Oc3ccccn3)c(Cl)c2)n(Cc2ccc(Cl)cc2)c1=O [Compound R-300] | – | 8 | –
40 | COC(=O)CCn1c(=O)[nH]/c(=N\c2ccc(Oc3ccccn3)c(Cl)c2)n(Cc2ccc(C)cc2)c1=O [Compound R-301] | – | 5 | –
41 | COC(=O)CCn1c(=O)[nH]/c(=N\c2ccc(Oc3cccc(C(C)=O)n3)cc2)n(Cc2ccc(Cl)cc2)c1=O [Compound R-302] | – | 6 | –
42 | COC(=O)CCn1c(=O)[nH]/c(=N\c2ccc(Oc3ccc(C(C)=O)cn3)cc2)n(Cc2ccc(Cl)cc2)c1=O [Compound R-303] | – | 3 | –
43 | COC(=O)CCn1c(=O)[nH]/c(=N\c2ccc(Oc3ccc(C(C)O)cn3)cc2)n(Cc2ccc(Cl)cc2)c1=O (stereo not shown) [Compound R-304] | – | 4 | –
44 | CC(=O)c1ccc(Oc2ccc(/N=c3\[nH]c(=O)n(CCC(=O)O)c(=O)n3Cc3ccc(Cl)cc3)cc2)nc1 [Compound R-305] | – | 7 | –
45 | CC(O)c1ccc(Oc2ccc(/N=c3\[nH]c(=O)n(CCC(=O)O)c(=O)n3Cc3ccc(Cl)cc3)cc2)nc1 (stereo not shown) [Compound R-306] | – | 14 | –
46 | CCOC(=O)Cn1c(=O)[nH]/c(=N\c2ccc(Oc3ccccn3)cc2)n(Cc2ccc(F)cc2)c1=O [Compound R-307] | – | 13 | –
47 | CCOC(=O)Cn1c(=O)[nH]/c(=N\c2ccc(Oc3ccc(F)cn3)cc2)n(Cc2ccc(Cl)cc2)c1=O [Compound R-309] | – | 4 | –
48 | CCOC(=O)Cn1c(=O)[nH]/c(=N\c2ccc(Oc3ccc(Cl)cn3)cc2)n(Cc2ccc(Cl)cc2)c1=O [Compound R-310] | – | 4 | –
49 | O=C(O)Cn1c(=O)[nH]/c(=N\c2ccc(Oc3ccc(F)cn3)cc2)n(Cc2ccc(Cl)cc2)c1=O [Compound R-311] | – | 428 | –
50 | O=C(O)Cn1c(=O)[nH]/c(=N\c2ccc(Oc3ccc(Cl)cn3)cc2)n(Cc2ccc(Cl)cc2)c1=O [Compound R-312] | – | 350 | –
51 | CCOC(=O)Cn1c(=O)[nH]/c(=N\c2ccc(Oc3ccc(C#N)cn3)cc2)n(Cc2ccc(Cl)cc2)c1=O [Compound R-313] | – | 3 | –
52 | N#Cc1ccc(Oc2ccc(/N=c3\[nH]c(=O)n(CC(=O)O)c(=O)n3Cc3ccc(Cl)cc3)cc2)nc1 [Compound R-314] | – | 48 | –
